Laboratory results: patent US20050053611A1, “Pharmaceutical kit comprising anti-human seminal plasma protein single chain antibody/human carboxypeptidase fusion protein and prodrug” (priority 2001, published 2005)

Experiments:
[1] = test system: PC cells (PC-3 and PC-3m); assay: cell cycle kinetic analysis by flow cytometry; assay type: cell-based, human
Method: 3) Kinetic effects of the fusion protein/prodrug on the growth cycle of PC cells: PC-3 and PC-3m cells were added to several 10 ml culture flasks (10^6/ml). MTX, MTX-α-Arg, MTX-α-Phe+CP-A, MTX-α-Phe+fusion protein at different concentrations were added to the flasks, respectively. The cells were collected at 6 h, 16 h and 24 h after the addition of the tested drugs and washed twice with cold saline and then fixed with 950 ml/L ethanol. The cells were stained by routine DNA staining method. Flow cytometry was employed in the kinetic analysis (FACS Profile II; Laser rate: 15 mW; Green light filter: 488 nm).

[2] = test system: PC cells (PC-3 and PC-3m); assay: colony formation assay (soft agar culture); assay type: cell-based, human; settings: 2 weeks
Method: 2) Colony formation assay. The colony formation assay was performed using soft agar culture method. 9 different groups were included in the assay: {circle over (1)}MTX+PC cell, {circle over (2)}MTX-α-Phe+PC cell, {circle over (3)}fusion protein+PC cell, {circle over (4)}MTX-α-Phe+CP-A+PC cell, {circle over (5)}MTX-α-Phe+fusion protein+PC cell, {circle over (6)}MTX-α-Arg+PC cell, {circle over (7)}MTX-α-Arg+CP-A+PC cell, {circle over (8)}MTX-α-Arg+fusion protein+PC cell and {circle over (9)}control group (PC cell only). All the tested prodrugs were used in three different concentrations, i.e. each of MTX, MTX-α-Phe and MTX-α-Arg was used at 0.4, 4, and 40 μg/ml. CP-A was used in a volume of 10 μl (2.5 mU/μl) and fusion protein was used in a volume of 10 μl (1 mg/ml). The density of PC cell was 200/well. The plate was incubated in a CO2 incubator at 37° C. for 2 weeks. After incubation, PC cells were fixed by a mixture of acetic acid and ethanol (1:3) for 2 h. Then microscopy was employed to calculate the percentage of colony formation.

[3] = test system: PC cells (PC-3 and PC-3m); assay type: cell-based; settings: MTT, 48 h; for lethal / cytotoxic effect to PC cells: lethal curves
Method: 1) MTT assay: PC-3 and PC-3m cells were seeded separately to a 96-well plate at 1×10^4 cells/ml/well. MTX, MTX-α-Phe, MTX-α-Phe+CP-A, MTX-α-Phe+fusion proteins and MTX-α-Arg, MTX-α-Arg+fusion proteins at different concentrations were also added into those wells. 3 parallel wells were set for each concentration. The cells were incubated in a CO2 incubator for 48 h. 20 μl of a solution of thiazole blue in PBS (5 mg/ml) was added to each well and incubated at 37° C. for 4 h. The culture medium and free thiazole blue were discarded and 0.1 ml of dimethylsulfoxide was added to each well. The absorbance at 405 nm was measured and mortality rate was calculated.

[4] = test system: PC-3m tumor; settings: for histopathologic examination of tumors: after 5 weeks of treatment; for average survival time / lifespan: from beginning of treatment till natural death
Method: Tumor Model: BALB/C nude mice aged 4-6 weeks and weight at 16-20 g were provided by the Experimental Animal Center of the Fourth Military Medical University (Xi'an, China) and bred in a sterile isolator. They were derma-inoculated with 0.1 ml of PC-3m suspension (1×10^7 cells). The drugs were administrated when the volume of tumor was approximately 0.5 cm^3.
1) Groups and treatments. 56 nude mice carrying tumors were randomized into 7 groups: {circle over (1)}Control group, intravenously administered with 0.5 ml of saline; {circle over (2)}Treatment Group I, intravenously administered with MTX (5 mg/kg); {circle over (3)}Treatment Group II, intravenously administered with MTX-α-Phe (5.32 mg/kg) {circle over (4)}Treatment Group III, intravenously administered with 0.5 ml of anti-γ-SmMcAb-CP-A; {circle over (5)}Treatment Group IV, intravenously administered with 0.5 ml of the fusion protein; {circle over (6)}Treatment Group V, intravenously administered with 0.5 ml of γ-SmMcAb-CP-A first and MTX-α-Phe (5.32 mg/kg) 72 h later (ADEPT-1); {circle over (7)}Treatment Group VI, intravenously administered with 0.5 ml of the fusion protein first and MTX-α-Phe (5.32 mg/kg) 72 h later (ADEPT-2).
Tumor-inhibition rate: The major diameter and minor diameter of the tumor were measured every week after the administration of drugs. The mass of tumor (m=½×major diameter×minor diameter^2) and tumor-inhibition rate (TIR) was thus calculated according the following formula. [formula]
Cell cycle of tumor cells is calculated by the formula: tc=[lg(1+G)/lg(m2/m1)]×t (G: a component of the tumor growth group; m2, m1: tumor mass of a given component of the group observed at different time points; t: interval between observations).
Survival time of the nude mice refers to the period from the beginning of the treatment till natural death.
Histopathologic observation includes gross specimen examination and microscopic examination. Samples of tumor and organs were fixed with 100 ml/L formalin. Pathologic section was stained […] underwent microscopy observation.

SMILES	kinetic change of cell cycle [1]	colony-formation rate [2] [%]	lethal / cytotoxic effect to PC cells [3]	IC50 ([3]; PC cells, read-out: IC50 of the prodrug) [mM]	tumor size compared with control ([4]; P>0.05)	histopathologic examination of tumors [4]	average survival time / lifespan [4] [days]	tumor cell growth cycle ([4]; mouse, in vivo)	cell proliferation index [1]	colony formation ([2]; P<0.001)	volume of tumors ([4]; by the 6th week)	growth of tumors ([4]; from the 2nd week on)	living quality of mice ([4]; mouse, in vivo)	whole blood count ([4]; mouse, in vivo)
CN(Cc1cnc2nc(N)nc(N)c2n1)c1ccc(C(=O)N[C@@H](CCC(=O)O)C(=O)N[C@@H](Cc2ccccc2)C(=O)O)cc1 [MTX-α-Phe, methotrexate-α-phenylalanine]	did not show any significant kinetic change	88	no lethal effect	72	small compared with that of the control but the difference was not significant	characteristics typical of adenocarcinoma	31 ± 12.2	1.7±0.2						
CN(Cc1cnc2nc(N)nc(N)c2n1)c1ccc(C(=O)NC(CCC(=O)O)C(=O)NC(CCCNC(=N)N)C(=O)O)cc1 (stereo not drawn) [MTX-α-Arg]		91	no lethal effect											
CN(Cc1cnc2nc(N)nc(N)c2n1)c1ccc(C(=O)N[C@@H](CCC(=O)O)C(=O)O)cc1 [MTX, Methotrexate]						a large area of necrosis in the tumors	67 ± 13.8	2.5±0.2	decreased significantly	none of these groups had any colony formed	significantly smaller than that in other groups	decreased	poor living quality	significantly lower than that of the ADEPT groups
